Experimental data published in US8889370B2, “Method of determining inhibitors of coagulation” (Siemens Healthcare Diagnostics Products GmbH, priority 2010, dated 2014).
Like-named read-outs stand apart in the source and are kept apart here.

Target: T1, bovine thrombin (Bos taurus, UniProt P00735)
T1 construct: a lyophilized thrombin reagent consisting of bovine thrombin; purchased Siemens Healthcare Diagnostics (hirudin activity assay, thrombin reagent)
Assay: Determination of the thrombin binding constant (Ki) of peptide aldehyde ligands, chromogenic assay with hirudin activity assay reagents, Dixon plot
Format: biochemical
Procedure: The kinetic data of the peptide aldehyde ligands were determined in chromogenic assay formats by measuring the rate of hydrolysis of chromogenic peptide substrates which compete with the peptide aldehyde ligands for binding to the active site of the particular enzyme, at various substrate concentrations and peptide aldehyde-ligand concentrations. The binding constant (Ki) was determined by a known method (Dixon, M., 1953, Biochem J, 55, 170-171).
The thrombin binding constant was determined using the reagents of the hirudin activity assay from Siemens Healthcare Diagnostics. The hirudin activity assay comprises a lyophilized thrombin reagent consisting of bovine thrombin, a heparin inhibitor and aprotinin, a lyophilized chromogenic substrate reagent with a concentration of 4 mmol/l tos-Gly-Pro-Arg-ANBA-IPA (tosylglycyl-L-propyl-arginyl-5-amino-2-nitrobenzoyliso-propylamide) after reconstitution. The thrombin reagent was reconstituted in buffer solution (trishydroxymethylamino-methane, NaCl, pH 8.2). Dilutions of the substrate reagent were prepared with deionized water. The peptide aldehyde ligands prepared according to example 1 were dissolved in water and used as sample. The B-r-G-R—H ligand was used in a concentration range from 26.1 to 0.815 μM. The B-f-P—R—H ligand was used in a concentration range from 26.1 to 0 μM. The assays were carried out automatically in a BCS® XP coagulation analyzer (Siemens Healthcare Diagnostics, Marburg, Germany).
A reaction mix was mixed together as follows:
30 μl of sample (peptide aldehyde ligand B-r-G-R—H or B-f-P—R—H),
150 μl of thrombin reagent,
50 μl of chromogenic substrate reagent (tos-Gly-Pro-Arg-ABNA-IPA).
The reaction rate in mE/min was determined on the basis of the increase in optical density of the reaction mix at a wavelength of 405 nm. For this, the optical density of the reaction mixes was determined in time intervals of from 15 to 40 seconds for the B-f-P—R—H peptide aldehyde ligand or 5-16 seconds for the B-r-G-R—H peptide aldehyde ligand.
Reversibly and irreversibly binding ligands can be distinguished by their reaction kinetics. Plotting 1/v, where v is the reaction rate, as a function of the ligand concentration (i) at a constant concentration (S) of a cleavable substrate produces a line. When using two or more different substrate concentrations (S1, S2 . . . SN), said lines intersect at a single point. The x axis value of this point corresponds to −Ki, with Ki corresponding to the binding constant, see, for example, Klebe, G., Wirkstoffdesign, 2nd edition, Spektrum Akademischer Verlag, Heidelberg, Germany, 2009, pages 52-62 and Dixon, M., 1953, Biochem J, 55, 170-171. With an irreversible inhibition, the curves meet at a single point on the x axis, which again corresponds to −Ki.

N=C(N)NCCC[C@@H](C=O)NC(=O)CNC(=O)[C@@H](CCCNC(=N)N)NC(=O)CCC(=O)NCCCOCCOCCOCCCNC(=O)CCCC[C@@H]1SC[C@@H]2NC(=O)N[C@@H]21 [B-r-G-R-H, biotinyl-Ttds-D-Arg-Gly-Arg-H]
1/Reaction rate (CB-r-G-R-H 0.81522 μM, Csubstrate = 0.5 mM): 0.516 min/E | 1/Reaction rate (CB-r-G-R-H 0.81522 μM, Csubstrate = 2 mM): 0.3884 min/E | 1/Reaction rate (CB-r-G-R-H 0.81522 μM, Csubstrate = 4 mM): 0.3756 min/E | 1/Reaction rate (CB-r-G-R-H 1.30435 μM, Csubstrate = 0.5 mM): 0.5211 min/E | 1/Reaction rate (CB-r-G-R-H 1.30435 μM, Csubstrate = 2 mM): 0.3902 min/E | 1/Reaction rate (CB-r-G-R-H 1.30435 μM, Csubstrate = 4 mM): 0.3758 min/E | 1/Reaction rate (CB-r-G-R-H 1.63043 μM, Csubstrate = 0.5 mM): 0.5224 min/E | 1/Reaction rate (CB-r-G-R-H 1.63043 μM, Csubstrate = 2 mM): 0.3894 min/E | 1/Reaction rate (CB-r-G-R-H 1.63043 μM, Csubstrate = 4 mM): 0.3748 min/E | 1/Reaction rate (CB-r-G-R-H 2.60870 μM, Csubstrate = 0.5 mM): 0.5283 min/E | 1/Reaction rate (CB-r-G-R-H 2.60870 μM, Csubstrate = 2 mM): 0.3876 min/E | 1/Reaction rate (CB-r-G-R-H 2.60870 μM, Csubstrate = 4 mM): 0.373 min/E | 1/Reaction rate (CB-r-G-R-H 3.26087 μM, Csubstrate = 0.5 mM): 0.5385 min/E | 1/Reaction rate (CB-r-G-R-H 3.26087 μM, Csubstrate = 2 mM): 0.3968 min/E | 1/Reaction rate (CB-r-G-R-H 3.26087 μM, Csubstrate = 4 mM): 0.3807 min/E | 1/Reaction rate (CB-r-G-R-H 5.21739 μM, Csubstrate = 0.5 mM): 0.5408 min/E | 1/Reaction rate (CB-r-G-R-H 5.21739 μM, Csubstrate = 2 mM): 0.3946 min/E | 1/Reaction rate (CB-r-G-R-H 5.21739 μM, Csubstrate = 4 mM): 0.3761 min/E | 1/Reaction rate (CB-r-G-R-H 6.52174 μM, Csubstrate = 0.5 mM): 0.5637 min/E | 1/Reaction rate (CB-r-G-R-H 6.52174 μM, Csubstrate = 2 mM): 0.4008 min/E | 1/Reaction rate (CB-r-G-R-H 6.52174 μM, Csubstrate = 4 mM): 0.3841 min/E | 1/Reaction rate (CB-r-G-R-H 9.78261 μM, Csubstrate = 0.5 mM): 0.5802 min/E | 1/Reaction rate (CB-r-G-R-H 9.78261 μM, Csubstrate = 2 mM): 0.4106 min/E | 1/Reaction rate (CB-r-G-R-H 9.78261 μM, Csubstrate = 4 mM): 0.3805 min/E | 1/Reaction rate (CB-r-G-R-H 13.04348 μM, Csubstrate = 0.5 mM): 0.609 min/E | 1/Reaction rate (CB-r-G-R-H 13.04348 μM, Csubstrate = 2 mM): 0.4032 min/E | 1/Reaction rate (CB-r-G-R-H 13.04348 μM, Csubstrate = 4 mM): 0.3885 min/E | 1/Reaction rate (CB-r-G-R-H 16.30435 μM, Csubstrate = 0.5 mM): 0.6264 min/E | 1/Reaction rate (CB-r-G-R-H 16.30435 μM, Csubstrate = 2 mM): 0.414 min/E | 1/Reaction rate (CB-r-G-R-H 16.30435 μM, Csubstrate = 4 mM): 0.3865 min/E | 1/Reaction rate (CB-r-G-R-H 26.08696 μM, Csubstrate = 0.5 mM): 0.6903 min/E | 1/Reaction rate (CB-r-G-R-H 26.08696 μM, Csubstrate = 2 mM): 0.4285 min/E | 1/Reaction rate (CB-r-G-R-H 26.08696 μM, Csubstrate = 4 mM): 0.395 min/E | Intersect of regression curve 1/reaction rate vs ligand concentration (Csubstrate 0.5 mM): 0.5122 min/E | Slope of regression curve 1/reaction rate vs ligand concentration (Csubstrate 0.5 mM): 0.006964 min/E μM | Intersect of regression curve 1/reaction rate vs ligand concentration (Csubstrate 2 mM): 0.3880 min/E | Slope of regression curve 1/reaction rate vs ligand concentration (Csubstrate 2 mM): 0.001572 min/E μM | Intersect of regression curve 1/reaction rate vs ligand concentration (Csubstrate 4 mM): 0.3746 min/E | Slope of regression curve 1/reaction rate vs ligand concentration (Csubstrate 4 mM): 0.000805 min/E μM | Ki (average of three Ki values, read-out: KiM average thrombin binding constant): 20.9 µM | Ki (intersection of regression curves Csubstrate 2 and 0.5 mM, read-out: Ki2&3 thrombin binding constant): 23 µM | Ki (intersection of regression curves Csubstrate 4 and 0.5 mM, read-out: Ki1&3 thrombin binding constant): 22.3 µM | Ki (intersection of regression curves Csubstrate 4 and 2 mM, read-out: Ki1&2 thrombin binding constant): 17.4 µM | binding of the peptide aldehyde with thrombin (reversible or irreversible) (intersections of regression curves not on the x axis): reversible
